# Laboratory results published in patent US20080058280A1, “Treatment of Lymphoma Using 10-Propargyl-10-Deazaaminopterin and Gemcitabine” (SLOAN-KETTERING INSTITUTE FOR CANCER RESEARCH, priority 2004, published 2008).
# Tests used:
# SKI-DLBCL-1 xenograft = experiment: Second combination xenograft experiment (FIG. 5); assay type: in vivo, SCID beige mice; conditions: PDX and Gem at one-quarter of the MTD (15 mg/kg); MTX (60 mg/kg) alone, Ara-C (300 mg/kg) alone or both
# Procedure: The same type of test was repeated to assess the in vivo efficacy of using combination therapies. […] Schedule dependent treatment was also determined by pretreating animals with PDX or MTX followed 24 hours later with Gem or Ara-C, respectively. One cohort of animals was treated with Gem followed by PDX. In all cases, the control animals received intraperitoneal injections of normal saline.
# Tumor bearing mice were assessed for weight loss and tumor volume at least twice weekly for the duration of the experiment. The data are expressed as the average tumor volume (mm3) per group as a function of time. Tumors were assessed by measuring the two largest perpendicular axes (l=length, w=width) with standard calipers. Tumor volume was calculated using the formula 4/3 πr^3 where r=(l+w)/4. Animals were sacrificed when one dimensional tumor diameter exceeded 2.0 cm, or after loss of more than 10% of their body weight in accordance with institutional guidelines. Animals were housed in standard shoe box cages in temperature and humidity constant rooms on a 12 hour light and dark cycle. Food and water were supplied ad libitum. Animals were maintained in core animal facilities under an institute approved animal protocol.
# [1] = system: subcutaneous tumors of SKI; experiment: Preliminary combination xenograft experiment; assay type: in vivo, irradiated NOD-SCID mice; conditions: for tumor response (in words): MTX 40 mg/kg (MTD), Ara-C 300 mg/kg (MTD), or combination at one-half the MTD
# Procedure: Given the experience that SKI-DLCL-1 is the most PDX resistant line in the panel, it was selected for these in vivo synergy experiments. […] All animals were treated with the maximum tolerated dose (MTD) of each drug, save the combination studies.
# SKI-DLBCL cells = experiment: Cell cycle analysis (propidium iodide binding); assay type: cell-based, human; conditions: result in words
# Procedure: All drugs were assayed at equimolar concentrations (i.e. 1 nM). The incubation conditions were modeled after the in vitro cytotoxicity experiments. Single agent drugs or combinations of all drugs studied without schedule considerations were incubated for 72 hours, while drugs that were studied in some schedule were introduced in a 24+48 incubation scheme (i.e. drug B added 24 hours following drug A, then incubated for an additional 48 hours for a total incubation time of 72 hours). […] In addition to monitoring apoptosis, cell cycle kinetic analyses were also performed on all treated cells based the propidium iodide binding.
# SKI-DLBCL-1 xenografts = experiment: TUNEL immunohistochemical staining for apoptosis in xenografts; assay type: in vivo, mice; conditions: day 21; MTX 40 mg/kg or PDX 60 mg/kg on days 0, 3, 7 and 10
# Procedure: Immunohistochemical staining for apoptosis as measured by terminal deoxynucleotide transferase-mediated nick end-labeling (TUNEL) was performed on SKI-DLBCL-1 xenografts from mice sacrificed at day 21 following initiation of antifolate therapy. Mice received four doses of saline, MTX (40 mg/kg) or PDX (60 mg/kg) on days 0, 3, 7 and 10.
# [2] = system: human HT (diffuse large B cell) non-Hodgkin's lymphoma xenografts; experiment: Subcutaneous lymphoma xenograft treatment; assay type: in vivo
# Source text: (§1) In order to study the effects of PDX on lymphoma growth in vivo, subcutaneous transplantation models in NOD/SCID mice were generated using three established human lymphoma cell line representative of aggressive transformed FL (RL) and de novo extranodal DLBCL (HT; SKI-DLCL-1) histologies. Six to eight week old non-obsese diabetic severe combined immunodeficient (NOD/SCID) mice (Jackson Laboratories, Bar Harbor, Me.) were sub-lethally irradiated with […] from a gamma source and inoculated with 10×10^6 lymphoma cells via a subcutaneous route. When tumor volumes approached 100 mm^3, mice were divided into three groups, averaging 3-8 mice per group. Mice were treated with normal saline or the maximum tolerated dose (MTD) of MTX (40 mg/kg) or PDX (60 mg/kg) via an intraperitoneal route twice weekly for two weeks (four total doses). […] (Sirotnak, et al., Cancer Chemother. Pharmacol. 12: 26-30 (1984); Sirotnak et al., Cancer Chemother. Pharmacol. 42: 313-318 (1998).
# (§2) Engraftment rates in this experiment ranged from 80 to 90%. Palpable tumors formed under the skin approximately 7-10 days after inoculation and were readily measurable with calipers. Mice with subcutaneous lymphoma growths survived an average of 40-50 days after inoculation.
# [3] = system: human RL (transformed follicular) non-Hodgkin's lymphoma xenografts; experiment: Subcutaneous lymphoma xenograft treatment; assay type: in vivo
# Source text: as §1, §2
# [4] = system: human SKI-DLCL-1 (de novo diffuse large B cell) non-Hodgkin's lymphoma xenografts; experiment: Subcutaneous lymphoma xenograft treatment; assay type: in vivo; conditions: SKI-DLCL-1 xenografts
# Source text: as §1, §2
# [5] = system: SKI-DLCL-1 (Diffuse large B Cell); experiment: Growth inhibition in vitro, 5 day exposure (XTT or Alamar blue); assay type: cell-based; conditions: Homo sapiens, 120 h, 5 day drug exposure
# Procedure: A PDX preparation prepared in accordance with Example 1 and an MTX preparation were tested for cytotoxicity against a panel of five human lymphoma cell lines. Experiments were performed as described previously. (Sirotnak et al., Cancer Chemother. […] Colorimetric dye (XTT or Alamar blue) was added for an addition period of time (XTT dye, 6 hours, Alamar blue, 24 hours). Each plate was then read on an automated plate reader at 590 nm. The percentage of inhibition was calculated as growth of cells exposed to drug divided by growth of controls (cells incubated with media only). […] Experiments were repeated as lest three times.
# [6] = cited from earlier work; for weight loss at the MTD: nude mice
# Raji (Burkitt's) = experiment: Growth inhibition in vitro, 5 day exposure (XTT or Alamar blue); assay type: cell-based; conditions: Homo sapiens, 120 h, 5 day drug exposure
# Procedure: (§3) A PDX preparation prepared in accordance with Example 1 and an MTX preparation were tested for cytotoxicity against a panel of five human lymphoma cell lines. Experiments were performed as described previously. (Sirotnak et al., Cancer Chemother. Pharmacol. 12: 18-25 (1984). In brief, 2.5 to 5×10^3 cells were plated per well in 96-well flat bottom plates. Drug was added in a 0.9% NaCl solution (pH 7.0) over a range of concentrations, and cells were continuously exposed to drug for 5 days. Colorimetric dye (XTT or Alamar blue) was added for an addition period of time (XTT dye, 6 hours, Alamar blue, 24 hours). Each plate was then read on an automated plate reader at 590 nm. The percentage of inhibition was calculated as growth of cells exposed to drug divided by growth of controls (cells incubated with media only). IC50 values were determined as the drug concentrations at which cell growth was inhibited 50% as compared to controls. Experiments were repeated as lest three times. Experiments were also conducted with continuous drug exposures lasting for 3 and 4 days with results similar to the 5 day results.
# [7] = system: HT (Diffuse large B cell); experiment: as above; assay type: cell-based; conditions: Homo sapiens, 120 h, 5 day drug exposure
# Procedure: as §3
# [8] = system: Hs445 (Hodgkin's disease); experiment: as above; assay type: cell-based; conditions: Homo sapiens, Hs 445, 120 h, 5 day drug exposure
# Procedure: as §3
# [9] = system: RL (Transformed follicular); experiment: as above; assay type: cell-based; conditions: Homo sapiens, 120 h, 5 day drug exposure
# Procedure: as §3
smiles,measurement,setting,value
"Nc1ccn([C@@H]2O[C@H](CO)[C@@H](O)[C@@H]2O)c(=O)n1 [Ara-C, cytarabine]",tumor response (in words),SKI-DLBCL-1 xenograft,sacrificed early due to excessive tumor growth
same,tumor response (in words),[1],modest growth delay compared to the control
"Nc1ccn([C@@H]2O[C@H](CO)[C@@H](O)C2(F)F)c(=O)n1 [Gem, 1-(2′,2′-difluoro-β-D-arabinofuranosyl) cytosine]",fraction of cells in S-phase,SKI-DLBCL cells,fewest
"CN(Cc1cnc2nc(N)nc(N)c2n1)c1ccc(C(=O)N[C@@H](CCC(=O)O)C(=O)O)cc1 [MTX, methotrexate]",tumor response (in words),SKI-DLBCL-1 xenograft,sacrificed early due to excessive tumor growth
same,apoptotic cells in tumor tissue (TUNEL),SKI-DLBCL-1 xenografts,little or no evidence of apoptotic cells
same,tumor response (in words),[2]; MTX 40 mg/kg,"modest growth delay as compared to controls, there was no tumor regression"
same,tumor response (in words),[3]; MTX 40 mg/kg,small reductions in growth an no regressions
same,tumor response (in words),[4]; MTX 40 mg/kg,small reductions in growth an no regressions
same,IC50,[5],48 ± 2.5 nM
same,weight loss at the MTD,[6],less than 10%
same,IC50,Raji (Burkitt's),16 ± 0.8 nM
same,IC50,[7],35 ± 5 nM
same,IC50,[8],32 ± 2.2 nM
same,IC50,[9],210 ± 40 nM
same,tumor response (in words),[1],modest growth delay compared to the control
"C#CCC(Cc1cnc2nc(N)nc(N)c2n1)c1ccc(C(=O)N[C@@H](CCC(=O)O)C(=O)O)cc1 (stereo partly shown) [PDX, 10-Propargyl-10-deazaminopterin]",apoptotic cells in tumor tissue (TUNEL),SKI-DLBCL-1 xenografts,a high level of apoptotic cells
same,Complete Regression (no/total),"[2]; MTX 40 mg/kg, PDX 60 mg/kg",8/9
same,Avg Tumor Diameter (mm ± SE),"[2]; MTX 40 mg/kg, PDX 60 mg/kg, at the nadir of tumor regression",0.5 mm
same,mice with complete tumor regression,"[2]; PDX 60 mg/kg, 8 of 9",89%
same,Tumor Regression (%),"[2]; PDX 60 mg/kg, average tumor regression",99%
same,Complete Regression (no/total),"[3]; MTX 40 mg/kg, PDX 60 mg/kg",5/9
same,Tumor Regression (%),[3]; PDX 60 mg/kg,56%
same,decrease of tumor volumes from initial volumes,[3]; PDX 60 mg/kg,at least 50%
same,mice with tumor regressions,"[3]; PDX 60 mg/kg, 5 of 9 mice",57%
same,Complete Regression (no/total),"[4]; MTX 40 mg/kg, PDX 60 mg/kg",3/10
same,Tumor Regression (%),[4]; PDX 60 mg/kg,54%
same,decrease of tumor volumes from initial volumes,[4]; PDX 60 mg/kg,at least 50%
same,mice with tumor regressions / complete remissions,"[4]; PDX 60 mg/kg, 3 of 10 mice",30%
same,maximum tolerated dose (MTD),"[6]; intraperitoneal, twice weekly, four total doses",60 mg/kg
same,weight loss at the MTD,[6],less than 10%
same,"tumor regrowth, % of initial tumor volumes","[1]; PDX or Gem at 60 mg/kg, by day 44",739%
